# HELM strings list units from the 5' end as sugar, base in round brackets, then linkage (d deoxyribose, r ribose, m 2'-O-methyl, p phosphodiester). Strings are as the collection lists them; they lack the last nucleoside at the 3' end of the tested compound. [moe] = 2'-O-(2-methoxyethyl) (MOE); [sp] = phosphorothioate linkage; [m5C] = 5-methylcytosine
# Biological target: GFAP
# Assay: mouse, dose not given
# Conditions: ASO
row,Substance,3 h FOB score [score 0-7]
1,RNA1{[moe](A)[sp].[moe](G)p.[moe](G)p.[moe](G)p.[moe](T)[sp].d(G)[sp].d(G)[sp].d([m5C])[sp].d(T)[sp].d(T)[sp].d([m5C])[sp].d(A)[sp].d(T)[sp].d([m5C])[sp].d(T)[sp].[moe](G)p.[moe]([m5C])p.[moe](T)[sp].[moe](T)}$$$$ (last 3' nucleoside missing),2
2,RNA1{[moe](A)[sp].[moe](G)p.[moe](G)p.[moe]([m5C])p.[moe](A)p.[moe]([m5C])p.d(A)[sp].d(G)[sp].d(T)[sp].d(T)[sp].d([m5C])[sp].d([m5C])[sp].d([m5C])[sp].d(A)[sp].d(G)[sp].d(A)[sp].[moe](T)p.[moe](A)[sp].[moe]([m5C])}$$$$ (last 3' nucleoside missing),1
3,RNA1{[moe](A)[sp].[moe](G)p.[moe](G)p.[moe]([m5C])p.[moe](T)[sp].d(T)[sp].d(T)[sp].d(T)[sp].d(G)[sp].d(A)[sp].d(G)[sp].d(A)[sp].d(T)[sp].d(A)[sp].d(T)[sp].[moe]([m5C])p.[moe](T)p.[moe](T)[sp].[moe](G)}$$$$ (last 3' nucleoside missing),6
4,RNA1{[moe](A)[sp].[moe](G)p.[moe](T)p.[moe](A)p.[moe](T)[sp].d(T)[sp].d(A)[sp].d([m5C])[sp].d([m5C])[sp].d(T)[sp].d([m5C])[sp].d(T)[sp].d(A)[sp].[moe]([m5C])p.[moe](T)p.[moe](A)[sp].[moe](G)}$$$$ (last 3' nucleoside missing),3
5,RNA1{[moe](A)[sp].[moe](G)p.[moe](T)p.[moe](G)p.[moe](A)[sp].d([m5C])[sp].d([m5C])[sp].d(T)[sp].d(G)[sp].d(T)[sp].d(G)[sp].d(A)[sp].d([m5C])[sp].d(T)[sp].d(A)[sp].[moe](T)p.[moe]([m5C])p.[moe](T)[sp].[moe](A)}$$$$ (last 3' nucleoside missing),6
6,RNA1{[moe](A)[sp].[moe](G)p.[moe](T)p.[moe](G)p.[moe](T)[sp].d(G)[sp].d(T)[sp].d(A)[sp].d(T)[sp].d(T)[sp].d(A)[sp].d(G)[sp].d(G)[sp].d(A)[sp].d(T)[sp].[moe]([m5C])p.[moe]([m5C])p.[moe]([m5C])[sp].[moe](A)}$$$$ (last 3' nucleoside missing),5
7,RNA1{[moe](A)[sp].[moe](G)p.[moe](T)p.[moe](G)p.[moe](T)p.[moe](G)p.d(T)[sp].d(A)[sp].d(T)[sp].d(T)[sp].d(A)[sp].d(G)[sp].d(G)[sp].d(A)[sp].d(T)[sp].d([m5C])[sp].[moe]([m5C])p.[moe]([m5C])[sp].[moe](A)}$$$$ (last 3' nucleoside missing),4
8,RNA1{[moe](A)[sp].[moe](G)p.[moe](T)p.[moe](G)p.d(T)[sp].d(G)[sp].d(T)[sp].d(A)[sp].d(T)[sp].d(T)[sp].d(A)[sp].d(G)[sp].d(G)[sp].d(A)[sp].[moe](T)p.[moe]([m5C])p.[moe]([m5C])p.[moe]([m5C])[sp].[moe](A)}$$$$ (last 3' nucleoside missing),5
9,RNA1{[moe](A)[sp].[moe](G)p.[moe](T)p.[moe]([m5C])p.[moe](A)[sp].d(G)[sp].d([m5C])[sp].d([m5C])[sp].d(T)[sp].d(G)[sp].d(G)[sp].d(T)[sp].d(T)[sp].[moe](A)p.[moe](G)p.[moe]([m5C])[sp].[moe]([m5C])}$$$$ (last 3' nucleoside missing),2
10,RNA1{[moe](A)[sp].[moe](G)p.[moe](T)p.[moe]([m5C])p.[moe](A)[sp].d(G)[sp].d([m5C])[sp].d([m5C])[sp].d(T)[sp].d(G)[sp].d(G)[sp].d(T)[sp].d(T)[sp].d(A)[sp].d(G)[sp].[moe]([m5C])p.[moe]([m5C])p.[moe](T)[sp].[moe](T)}$$$$ (last 3' nucleoside missing),6
11,RNA1{[moe](A)[sp].[moe](G)p.[moe](T)p.[moe]([m5C])p.[moe](A)p.[moe](G)p.d([m5C])[sp].d([m5C])[sp].d(T)[sp].d(G)[sp].d(G)[sp].d(T)[sp].d(T)[sp].d(A)[sp].d(G)[sp].d([m5C])[sp].[moe]([m5C])p.[moe](T)[sp].[moe](T)}$$$$ (last 3' nucleoside missing),3
12,RNA1{[moe](A)[sp].[moe](G)p.[moe](T)p.[moe]([m5C])p.[moe](A)p.d(G)[sp].d([m5C])[sp].d([m5C])[sp].d(T)[sp].d(G)[sp].d(G)[sp].d(T)[sp].d(T)[sp].d(A)[sp].d(G)[sp].[moe]([m5C])p.[moe]([m5C])p.[moe](T)[sp].[moe](T)}$$$$ (last 3' nucleoside missing),4
13,RNA1{[moe](A)[sp].[moe](G)p.[moe](T)p.[moe]([m5C])p.[moe](T)[sp].d([m5C])[sp].d(A)[sp].d(G)[sp].d(T)[sp].d(T)[sp].d(T)[sp].d(T)[sp].d([m5C])[sp].d([m5C])[sp].d(T)[sp].[moe]([m5C])p.[moe]([m5C])p.[moe](A)[sp].[moe](G)}$$$$ (last 3' nucleoside missing),2
14,RNA1{[moe](A)[sp].[moe](G)p.[moe](T)p.[moe]([m5C])p.d(A)[sp].d(G)[sp].d([m5C])[sp].d([m5C])[sp].d(T)[sp].d(G)[sp].d(G)[sp].d(T)[sp].d(T)[sp].d(A)[sp].[moe](G)p.[moe]([m5C])p.[moe]([m5C])p.[moe](T)[sp].[moe](T)}$$$$ (last 3' nucleoside missing),3
15,RNA1{[moe](A)[sp].[moe](G)p.[moe]([m5C])p.[moe](A)p.[moe](T)[sp].d(A)[sp].d(G)[sp].d(G)[sp].d(G)[sp].d(A)[sp].d(T)[sp].d(A)[sp].d(T)[sp].d([m5C])[sp].d([m5C])[sp].[moe]([m5C])p.[moe](A)p.[moe]([m5C])[sp].[moe]([m5C])}$$$$ (last 3' nucleoside missing),2
16,RNA1{[moe](A)[sp].[moe](G)p.[moe]([m5C])p.[moe](A)p.[moe](T)[sp].d(T)[sp].d(T)[sp].d(G)[sp].d(T)[sp].d([m5C])[sp].d(T)[sp].d(T)[sp].d(T)[sp].[moe](A)p.[moe](T)p.[moe](T)[sp].[moe](T)}$$$$ (last 3' nucleoside missing),3
17,RNA1{[moe](A)[sp].[moe](G)p.[moe]([m5C])p.[moe](A)p.[moe](T)[sp].d(T)[sp].d(T)[sp].d(G)[sp].d(T)[sp].d([m5C])[sp].d(T)[sp].d(T)[sp].d(T)[sp].d(A)[sp].d(T)[sp].[moe](T)p.[moe](T)p.[moe](T)[sp].[moe](T)}$$$$ (last 3' nucleoside missing),1
18,RNA1{[moe](A)[sp].[moe](G)p.[moe]([m5C])p.[moe](A)p.[moe](T)p.[moe](T)p.d(T)[sp].d(G)[sp].d(T)[sp].d([m5C])[sp].d(T)[sp].d(T)[sp].d(T)[sp].d(A)[sp].d(T)[sp].d(T)[sp].[moe](T)p.[moe](T)[sp].[moe](T)}$$$$ (last 3' nucleoside missing),1
19,RNA1{[moe](A)[sp].[moe](G)p.[moe]([m5C])p.[moe](A)p.d(T)[sp].d(T)[sp].d(T)[sp].d(G)[sp].d(T)[sp].d([m5C])[sp].d(T)[sp].d(T)[sp].d(T)[sp].d(A)[sp].[moe](T)p.[moe](T)p.[moe](T)p.[moe](T)[sp].[moe](T)}$$$$ (last 3' nucleoside missing),1
20,RNA1{[moe](A)[sp].[moe](G)p.[moe]([m5C])p.[moe]([m5C])p.[moe](A)[sp].d(G)[sp].d(T)[sp].d(G)[sp].d(T)[sp].d([m5C])[sp].d(T)[sp].d(T)[sp].d([m5C])[sp].d(A)[sp].d([m5C])[sp].[moe](T)p.[moe](T)p.[moe](T)[sp].[moe](G)}$$$$ (last 3' nucleoside missing),2
21,RNA1{[moe](A)[sp].[moe](G)p.[moe]([m5C])p.[moe]([m5C])p.[moe](T)[sp].d(G)[sp].d(G)[sp].d(T)[sp].d(T)[sp].d(A)[sp].d(G)[sp].d([m5C])[sp].d([m5C])[sp].[moe](T)p.[moe](T)p.[moe](T)[sp].[moe]([m5C])}$$$$ (last 3' nucleoside missing),4
22,RNA1{[moe](A)[sp].[moe](G)p.[moe]([m5C])p.[moe]([m5C])p.[moe]([m5C])[sp].d([m5C])[sp].d(A)[sp].d([m5C])[sp].d([m5C])[sp].d(T)[sp].d(A)[sp].d(G)[sp].d(A)[sp].d(A)[sp].d(G)[sp].[moe](T)p.[moe](A)p.[moe]([m5C])[sp].[moe]([m5C])}$$$$ (last 3' nucleoside missing),2
23,RNA1{[moe](A)[sp].[moe](T)p.[moe](G)p.[moe](G)p.[moe](G)[sp].d(T)[sp].d(G)[sp].d(A)[sp].d(G)[sp].d(G)[sp].d(T)[sp].d(G)[sp].d(A)[sp].d(G)[sp].d(G)[sp].[moe](A)p.[moe](G)p.[moe](T)[sp].[moe]([m5C])}$$$$ (last 3' nucleoside missing),5
24,RNA1{[moe](A)[sp].[moe](T)p.[moe](T)p.[moe](T)p.[moe](A)[sp].d(A)[sp].d([m5C])[sp].d(A)[sp].d(T)[sp].d(T)[sp].d(A)[sp].d(A)[sp].d(G)[sp].d(A)[sp].d(G)[sp].[moe]([m5C])p.[moe](A)p.[moe](G)[sp].[moe](G)}$$$$ (last 3' nucleoside missing),4
25,RNA1{[moe](A)[sp].[moe](T)p.[moe](T)p.[moe](T)p.[moe](G)[sp].d(T)[sp].d([m5C])[sp].d(T)[sp].d(T)[sp].d(T)[sp].d(A)[sp].d(T)[sp].d(T)[sp].[moe](T)p.[moe](T)p.[moe](T)[sp].[moe]([m5C])}$$$$ (last 3' nucleoside missing),0
26,RNA1{[moe](A)[sp].[moe](T)p.[moe](T)p.[moe](T)p.[moe](G)[sp].d(T)[sp].d([m5C])[sp].d(T)[sp].d(T)[sp].d(T)[sp].d(A)[sp].d(T)[sp].d(T)[sp].d(T)[sp].d(T)[sp].[moe](T)p.[moe]([m5C])p.[moe]([m5C])[sp].[moe](T)}$$$$ (last 3' nucleoside missing),0
